Reference: ChEMBL document CHEMBL3046640, “Synthesis and antimicrobial activity of bischalcone derivatives” (2013)
In brackets after ≈: the same amount, converted by molar mass. Activity calls are given as the source filed them. The calls are words filed in the database; no cut-off is given here.

How the values were obtained:
Assay type in all cases: functional
[1] = test system: Candida albicans; test: Antifungal activity against Candida albicans ATCC 10231 assessed as growth inhibition after 48 hr by broth dilution method
[2] = test system: Rhizopus arrhizus; test: Antifungal activity against Rhizopus oryzae MTCC 262 assessed as growth inhibition after 48 hr by broth dilution method
[3] = test system: Aspergillus niger; test: Antifungal activity against Aspergillus niger ATCC 16404 assessed as growth inhibition after 48 hr by broth dilution method
[4] = test system: Escherichia coli; test: Antibacterial activity against Escherichia coli ATCC 25922 assessed as growth inhibition at 100 ug/mL after 24 hr by cup-plate method; details: ATCC 25922, 24 h, read-out: DIZ
[5] = test system: Escherichia coli; test: Antibacterial activity against Escherichia coli ATCC 25922 assessed as growth inhibition after 24 hr by broth dilution method
[6] = test system: Staphylococcus aureus; test: Antibacterial activity against Staphylococcus aureus ATCC 25923 assessed as growth inhibition at 100 ug/mL after 24 hr by cup-plate method; details: ATCC 25923, 24 h, read-out: DIZ
[7] = test system: Pseudomonas aeruginosa; test: Antibacterial activity against Pseudomonas aeruginosa ATCC 27853 assessed as growth inhibition after 24 hr by broth dilution method
[8] = test system: Aspergillus niger; test: Antifungal activity against Aspergillus niger ATCC 16404 assessed as growth inhibition at 100 ug/mL after 3 to 4 days by agar diffusion method; details: read-out: DIZ
[9] = test system: Rhizopus arrhizus; test: Antifungal activity against Rhizopus oryzae MTCC 262 assessed as growth inhibition at 100 ug/mL after 3 to 4 days by agar diffusion method; details: read-out: DIZ
[10] = test system: Candida albicans; test: Antifungal activity against Candida albicans ATCC 10231 assessed as growth inhibition at 100 ug/mL after 3 to 4 days by agar diffusion method; details: read-out: DIZ
[11] = test system: Pseudomonas aeruginosa; test: Antibacterial activity against Pseudomonas aeruginosa ATCC 27853 assessed as growth inhibition at 100 ug/mL after 24 hr by cup-plate method; details: ATCC 27853, 24 h, read-out: DIZ
[12] = test system: Staphylococcus aureus; test: Antibacterial activity against Staphylococcus aureus ATCC 25923 assessed as growth inhibition after 24 hr by broth dilution method

Row | SMILES | MIC ([1]; ATCC 10231, 48 h) | MIC [2] | MIC [3] | MIC [5] | MIC [7] | MIC ([12]; ATCC 25923, 24 h) | MIC [1] | MIC ([5]; ATCC 25922, 24 h) | MIC ([2]; MTCC 262, 48 h) | MIC ([3]; ATCC 16404, 48 h) | MIC ([7]; ATCC 27853, 24 h) | MIC [12] | zone of inhibition at 100 µg/mL [4] | zone of inhibition at 100 µg/mL [6] | zone of inhibition at 100 µg/mL [8] | zone of inhibition at 100 µg/mL [9] | zone of inhibition at 100 µg/mL [10] | zone of inhibition at 100 µg/mL [11]
1 | CC(=O)c1cc(C(C)=O)c(OC(=O)c2cccc([N+](=O)[O-])c2)cc1OC(=O)c1cccc([N+](=O)[O-])c1 | > 100 µg/mL | inactive | inactive | inactive | inactive | > 100 µg/mL |  |  |  |  |  |  | < 5 mm | 5 mm | < 5 mm | < 5 mm | 5 mm | < 5 mm
2 | CC(=O)c1cc(C(C)=O)c(OC(=O)c2ccccc2[N+](=O)[O-])cc1OC(=O)c1ccccc1[N+](=O)[O-] |  | inactive | inactive |  | inactive | 50 µg/mL (≈ 102 µM) | inactive | > 100 µg/mL |  |  |  |  | 5 mm | 10 mm | < 5 mm | < 5 mm | < 5 mm | < 5 mm
3 | Cc1ccccc1-c1cc(=O)c2cc3c(=O)cc(-c4ccccc4C)oc3cc2o1 | 50 µg/mL (≈ 127 µM) |  |  |  |  | 50 µg/mL (≈ 127 µM) |  | > 100 µg/mL | > 100 µg/mL | > 100 µg/mL | 50 µg/mL (≈ 127 µM) |  | 5 mm | 10 mm | 5 mm | 5 mm | 10 mm | 10 mm
4 | COc1cccc(/C=C/C(=O)c2cc(C(=O)/C=C/c3cccc(OC)c3)c(OC)cc2OC)c1 | > 100 µg/mL | inactive | inactive |  | inactive |  |  | > 100 µg/mL |  |  |  | inactive | 5 mm | < 5 mm | < 5 mm | < 5 mm | 5 mm | < 5 mm
5 | O=C(/C=C/c1ccc(Cl)cc1)c1cc(C(=O)/C=C/c2ccc(Cl)cc2)c(O)cc1O | 50 µg/mL (≈ 114 µM) |  |  |  |  | 50 µg/mL (≈ 114 µM) |  | 50 µg/mL (≈ 114 µM) | 50 µg/mL (≈ 114 µM) | 50 µg/mL (≈ 114 µM) | 25 µg/mL (≈ 56.9 µM) |  | 10 mm | 10 mm | 10 mm | 10 mm | 10 mm | 15 mm

Further lines, with some results ahead:

Row | MIC ([1]; ATCC 10231, 48 h) | MIC [2] | MIC [3] | MIC [5] | MIC [7] | MIC ([12]; ATCC 25923, 24 h) | MIC [1] | MIC ([5]; ATCC 25922, 24 h) | MIC ([2]; MTCC 262, 48 h) | MIC ([3]; ATCC 16404, 48 h) | MIC ([7]; ATCC 27853, 24 h) | MIC [12] | SMILES | zone of inhibition at 100 µg/mL [4] | zone of inhibition at 100 µg/mL [6] | zone of inhibition at 100 µg/mL [8] | zone of inhibition at 100 µg/mL [9] | zone of inhibition at 100 µg/mL [10] | zone of inhibition at 100 µg/mL [11]
6 | 25 µg/mL (≈ 58.1 µM) |  |  |  |  | 50 µg/mL (≈ 116 µM) |  | 50 µg/mL (≈ 116 µM) | 25 µg/mL (≈ 58.1 µM) | 50 µg/mL (≈ 116 µM) | 50 µg/mL (≈ 116 µM) |  | COc1cccc(/C=C/C(=O)c2cc(C(=O)/C=C/c3cccc(OC)c3)c(O)cc2O)c1 | 10 mm | 10 mm | 10 mm | 15 mm | 15 mm | 10 mm
7 | 50 µg/mL (≈ 91.5 µM) |  |  |  |  | > 100 µg/mL |  | 50 µg/mL (≈ 91.5 µM) | 50 µg/mL (≈ 91.5 µM) | 50 µg/mL (≈ 91.5 µM) | > 100 µg/mL |  | COc1cc(-c2cc(=O)c3cc4c(=O)cc(-c5cc(OC)c(OC)c(OC)c5)oc4cc3o2)cc(OC)c1OC | 10 mm | 5 mm | 10 mm | 10 mm | 10 mm | 5 mm
8 | 50 µg/mL (≈ 110 µM) |  |  |  |  | 50 µg/mL (≈ 110 µM) |  | 25 µg/mL (≈ 54.8 µM) | 50 µg/mL (≈ 110 µM) | > 100 µg/mL | 50 µg/mL (≈ 110 µM) |  | CN(C)c1ccc(/C=C/C(=O)c2cc(C(=O)/C=C/c3ccc(N(C)C)cc3)c(O)cc2O)cc1 | 15 mm | 10 mm | 5 mm | 10 mm | 10 mm | 10 mm
